Results on 11 molecules are retold here after ChEMBL document CHEMBL1201862, “PubChem BioAssay data set” (2004).

Test systems include MCF7; SN12C; MDA-N; NCI-H522; NCI-H23; OVCAR-4; CAKI-1; OVCAR-8; 786-0; NCI-H226; SF-295; SF-539; CCRF-CEM; HOP-92; HOP-62; U-251; A498; HL-60; TK-10.
What all share (test): growth of human tumour cells (NCI), 48 h

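How tested: cells in 96-well plates exposed to compound for 48 hours at five concentrations. GI50 marks 50% less growth.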 Active and inactive are the calls of the source. Cut-off read from the data, not from the text of the source: active = GI50 up to about 1.1 µM and inactive = higher.

Take `CCC1=C(C)C(=O)N/C1=C\c1[nH]c(C)c([C@H](C)CCN)c1C`: the GI50 is 15.5 µM (inactive) in the assay on MCF7; 16 µM (inactive) in the assay on SN12C; 15.3 µM (inactive) in the assay with MDA-N; 11.6 µM (inactive) in the assay with NCI-H522; 13.3 µM (inactive) in the assay with NCI-H23; 12.8 µM (inactive) in the assay on OVCAR-4. Besides, the GI50 is 17.1 µM (inactive) with CAKI-1; 15.3 µM (inactive) in the assay on OVCAR-8; 14.7 µM (inactive) in the assay on 786-0; 17.1 µM (inactive) in the assay with NCI-H226; 16.5 µM (inactive) in the assay on SF-295; 0.0944 µM (active) in the assay with SF-539. The GI50 with CCRF-CEM is 23 µM (inactive); in the assay on HOP-92, 14.6 µM (inactive); in the assay with HOP-62, 16.6 µM (inactive); in the assay on U-251 it was 15.1 µM (inactive); in the assay with A498, 18.6 µM (inactive); in the assay on HL-60, 10 µM (inactive).

Consider `O=C1/C(=C/c2ccccc2)N=C(c2ccccc2)N1C1Nc2cc3c(cc2S1)NC(N1C(=O)/C(=C/c2ccccc2)N=C1c1ccccc1)S3` (stereo not given), for which the GI50 is 22.3 µM (inactive) in the assay on MCF7; 8.61 µM (inactive) in the assay on MDA-N; 0.0258 µM (active) in the assay on NCI-H522; 4.9 µM (inactive) in the assay on NCI-H23; 51.1 µM (inactive) with OVCAR-4; > 100 µM (inactive) with CAKI-1. For the same molecule, the GI50 was 4.33 µM (inactive) with OVCAR-8; 53.6 µM (inactive) in the assay on 786-0; 44.5 µM (inactive) in the assay on NCI-H226; 30.5 µM (inactive) in the assay with TK-10; > 100 µM (inactive) with SF-295; > 100 µM (inactive) in the assay on SF-539. Further, the GI50 in the assay on CCRF-CEM was 31.7 µM (inactive); in the assay with HOP-92 it was 2.31 µM (inactive); in the assay on HOP-62, 16.9 µM (inactive); in the assay with U-251, 4.72 µM (inactive); in the assay with A498, 16.9 µM (inactive); with HL-60 it was 3.63 µM (inactive).

`CC(C)Cc1cc2c(cc1O)CCC1C2CC[C@@]2(C)C1CC[C@@H]2O` (stereo not given in full): the GI50 in the assay with MCF7 was 8.43 µM (inactive); in the assay with SN12C it was 7.74 µM (inactive); with MDA-N, 7.05 µM (inactive); in the assay on NCI-H522 it was 6.25 µM (inactive); in the assay on NCI-H23 it was 8.39 µM (inactive); in the assay with OVCAR-4, 8.97 µM (inactive). Further, the GI50 was 16 µM (inactive) in the assay on CAKI-1; 6.35 µM (inactive) with OVCAR-8; 8.13 µM (inactive) with 786-0; 4.79 µM (inactive) in the assay with NCI-H226; 9.48 µM (inactive) in the assay on TK-10; 4.09 µM (inactive) in the assay on SF-295. The GI50 in the assay with SF-539 was 19.5 µM (inactive); with CCRF-CEM it was 7.91 µM (inactive); with HOP-92 it was 10.2 µM (inactive); in the assay with HOP-62 it was 11.6 µM (inactive); in the assay on U-251, 10.7 µM (inactive); in the assay on A498 it was 18.3 µM (inactive). Besides, in the assay on HL-60, the GI50 is 1.94 µM (inactive).

Turning to `COc1cc(/C=C/C(=O)N[C@@H]2C(=O)N3[C@@H]2SC(C)(C)[C@@H]3C(=O)O)cc(OC)c1OC`, the GI50 in the assay on MCF7, with SN12C, with MDA-N, with NCI-H522, with NCI-H23 and in the assay on OVCAR-4 was > 100 µM (inactive) in each case. The GI50 in the assay on CAKI-1, in the assay on OVCAR-8, in the assay with 786-0, with NCI-H226, in the assay with TK-10 and in the assay with SF-295 was > 100 µM (inactive) in each case. Besides, the GI50 in the assay on SF-539, in the assay on CCRF-CEM, in the assay with HOP-92, in the assay with U-251, in the assay with A498 and with HL-60 was > 100 µM (inactive) throughout.

Turning to `Nc1[nH]nc2ccccc12`, the GI50 with MCF7, with SN12C, in the assay with MDA-N, in the assay with NCI-H522, in the assay on NCI-H23 and in the assay on OVCAR-4 was > 100 µM (inactive) each time. Also, the GI50 is > 100 µM (inactive) with CAKI-1; > 100 µM (inactive) in the assay on OVCAR-8; > 100 µM (inactive) in the assay with 786-0; > 100 µM (inactive) with NCI-H226; > 100 µM (inactive) in the assay with TK-10; 77.8 µM (inactive) in the assay on SF-295. Also, the GI50 with SF-539, in the assay on CCRF-CEM, in the assay on HOP-92, in the assay on HOP-62, in the assay with U-251 and in the assay with A498 was > 100 µM (inactive) each time. In addition, the GI50 with HL-60 was > 100 µM (inactive).

On to `COc1c(O)ccc2c1CN1CCc3cc4c(cc3C1C2)OCO4` (stereo not given), for which the GI50 with MCF7 is 21.6 µM (inactive); in the assay with SN12C, 27.7 µM (inactive); with MDA-N it was 26.4 µM (inactive); with NCI-H522, 7.43 µM (inactive); in the assay on NCI-H23, 36.2 µM (inactive); in the assay on OVCAR-4 it was 23.1 µM (inactive). Besides, the GI50 with CAKI-1 is 38.3 µM (inactive); with OVCAR-8, 33.9 µM (inactive); with 786-0, 23.9 µM (inactive); in the assay with NCI-H226, 44.5 µM (inactive); with TK-10, 28.9 µM (inactive); in the assay with SF-295 it was 29.7 µM (inactive). For the same molecule, the GI50 in the assay with SF-539 was 40 µM (inactive); in the assay on CCRF-CEM, 30.8 µM (inactive); in the assay on HOP-92, 51.8 µM (inactive); in the assay on HOP-62 it was 36.4 µM (inactive); in the assay with U-251, 29.6 µM (inactive); in the assay on A498, 20.8 µM (inactive). For the same molecule, the GI50 in the assay with HL-60 was 20 µM (inactive).

Regarding `O=C1c2cccnc2S(=O)(=O)N1c1ccc(Oc2ccccc2)cc1`, the GI50 in the assay with MCF7, in the assay on SN12C, in the assay with MDA-N, in the assay on NCI-H522, in the assay with NCI-H23 and with OVCAR-4 was > 100 µM (inactive) throughout. Moreover, the GI50 in the assay on CAKI-1 is 51.8 µM (inactive); in the assay on OVCAR-8 it was > 100 µM (inactive); in the assay on 786-0 it was > 100 µM (inactive); in the assay with NCI-H226, > 100 µM (inactive); in the assay with SF-295 it was > 100 µM (inactive); in the assay with SF-539, > 100 µM (inactive). The GI50 in the assay on CCRF-CEM was 90.4 µM (inactive); in the assay on HOP-92, > 100 µM (inactive); with HOP-62 it was > 100 µM (inactive); in the assay on U-251, > 100 µM (inactive); with A498, > 100 µM (inactive); in the assay on HL-60, > 100 µM (inactive).

For the molecule `O=C(CN1CCCCC1)CC(O)(C(F)(F)F)C(F)(F)F`, the GI50 in the assay with MCF7, in the assay on MDA-N, in the assay with NCI-H522, in the assay on NCI-H23, in the assay on OVCAR-4 and with CAKI-1 was > 100 µM (inactive) in each case. For the same molecule, the GI50 in the assay with OVCAR-8, in the assay on 786-0, in the assay on NCI-H226, with TK-10, in the assay with SF-295 and with SF-539 was > 100 µM (inactive) each time. For the same molecule, the GI50 with CCRF-CEM, in the assay on HOP-92, with U-251, in the assay on A498 and with HL-60 was > 100 µM (inactive) throughout.

`S=C(N/N=C(/c1ccccc1)c1ccccn1)N1CCCCC1`: the GI50 with MCF7 is 0.0425 µM (active); in the assay on MDA-N, < 0.038 µM (active); in the assay with NCI-H522 it was < 0.0344 µM (active); with NCI-H23 it was 0.0459 µM (active); with OVCAR-4, 1.5 µM (inactive); in the assay on CAKI-1 it was 0.143 µM (active). The GI50 in the assay with OVCAR-8 was < 0.0281 µM (active); in the assay on 786-0, < 0.0286 µM (active); with NCI-H226, 0.134 µM (active); with TK-10 it was 0.114 µM (active); in the assay on SF-295 it was < 0.031 µM (active); in the assay with SF-539, 0.424 µM (active). The GI50 in the assay on CCRF-CEM is < 0.0134 µM (active); in the assay on HOP-92, 0.546 µM (active); in the assay on HOP-62, 0.0785 µM (active); in the assay with U-251 it was < 0.0244 µM (active); in the assay on A498 it was 0.407 µM (active); with HL-60, 0.01 µM (active).

As for `CC1(C)OC1COc1c2occc2cc2ccc(=O)oc12` (stereo not given), the GI50 in the assay on MCF7, in the assay with SN12C, in the assay on MDA-N, with NCI-H522, in the assay on NCI-H23 and in the assay on OVCAR-4 was > 100 µM (inactive) each time. Further, the GI50 is > 100 µM (inactive) in the assay with CAKI-1; 60.5 µM (inactive) in the assay with OVCAR-8; > 100 µM (inactive) in the assay on 786-0; > 100 µM (inactive) in the assay with NCI-H226; > 100 µM (inactive) with SF-295; > 100 µM (inactive) in the assay on SF-539. The GI50 with CCRF-CEM is > 100 µM (inactive); in the assay with HOP-92, > 100 µM (inactive); with HOP-62 it was > 100 µM (inactive); with U-251, > 100 µM (inactive); with A498, > 100 µM (inactive); in the assay with HL-60, 70.5 µM (inactive).

On to `NC(=O)c1cc(N(CCO)CCO)c([N+](=O)[O-])cc1[N+](=O)[O-]`, for which the GI50 with MCF7, in the assay with SN12C, in the assay on MDA-N, with NCI-H522, in the assay with NCI-H23 and in the assay with OVCAR-4 was > 100 µM (inactive) each time. Also, the GI50 with CAKI-1, in the assay with 786-0, in the assay with NCI-H226, in the assay with TK-10, with SF-295 and with SF-539 was > 100 µM (inactive) throughout. For the same molecule, the GI50 in the assay on CCRF-CEM, in the assay with HOP-92, with HOP-62, in the assay with U-251, in the assay on A498 and in the assay on HL-60 was > 100 µM (inactive) each time.
